Source: paper PMC4838890, “Dynamic and flexible H3K9me3 bridging via HP1β dimerization establishes a plastic state of condensed chromatin” (Nature Communications, 2016)

Experiments:
[1] = test system: H3K9me0 oligonucleosomes; experiment: Chromatin sedimentation (clustering), H3K9me0 oligonucleosomes; type: biochemical, Xenopus laevis; conditions: 150 mM NaCl, EtBr fluorescence, n=3
Experimental: Figure 3 hHP1β clusters oligonuclesomal arrays in dependence of H3K9me3. (a) Oligonucleosomes (2.5 nM) were incubated with increasing concentrations of hHP1β WT or I161A at 150 mM NaCl. DNA remaining in the supernatant after centrifugation was incubated with EtBr and measured by fluorescence reading. Data were normalized to amounts in absence of added protein. Averages of three independent experiments are plotted; error bars represent s.d.; n=3. (b) Analysis of the hydrodynamic radius of oligonucleosomes (10 nM; DNA labelled with ATTO 610) in the presence of increasing concentrations of hHP1β WT or I161A by FCS at 150 mM NaCl. For details on experimental setup see Supplementary Fig. 3. Error bars represent s.d.; n=3. (c) Oligonucleosomes were reconstituted after mixing H3K9me0 and H3K9me3 octamers at different ratio. Chromatin precipitation analysis at 150 mM NaCl was carried out with hHP1β WT at saturating concentration. Data are presented as in a. (d) Precipitation behaviour of oligonucleosomes (2.5 nM) was analysed at different concentrations of NaCl with hHP1β WT at saturating concentration. […] Precipitated material was analysed by western blotting. […] Complexes were fixed with 0.05% (v/v) glutaraldehyde, spotted on mica surfaces and analysed by scanning force microscopy. […] (h) Quantification of results representatively shown in g according to the classification on the top: A, extended; B, partially condensed; C, fully condensed; D; aggregates; n>50 for each condition.
For saturating conditions, 2.7 nM oligonucleosomes were incubated with 5 μM hHP1β proteins in 100 μl sedimentation buffer (10 mM triethanolamine (pH 7.5), 150 mM NaCl, 0.1 mM EDTA) for 1 h on ice. […] For quantification of chromatin DNA, the input and output samples were incubated with 40 μl 0.5 μg ml^−1 ethidium bromide and fluorescence was measured on a Plate CHAMELEON II fluorescence plate reader (Hidex, Turku, Finland) using a 360 nm (±5 nm) excitation filter and a 612 nm (±5 nm) emission filter. For each sample the ratio of DNA concentrations after and before centrifugation (output/input) was calculated. […]

[2] = test system: mouse fibroblasts; experiment: Subnuclear distribution of EGFP fusion proteins; type: cell-based; conditions: GFP fusions transiently expressed, n >100
From the text: Supplementary Figure 11: Subnuclear distribution of hHP1 β wild type and mutant proteins .
(a) The indicated proteins fused to EGFP were transiently expressed in mouse fibroblast cells.
Representative fluorescence confocal images are shown. DNA was stained with DAPI. Scale bar […]
(b) Quantification of the subnuclear distribution of the hHP1β WT and mutant proteins analyzed as in ( a) by visual inspection. EGFP signal in each transfected cell was categoriz ed into ‘dotted’ (see WT distribution in panel a) or ‘diffuse’ (see distribution of I161A in panel a). n >100 for each condition.
(1 picture or pasted object on this page, not shown here)

Row | Substance | chromatin clustering/aggregation, H3K9me0 [1] | chromatin clustering/aggregation, H3K9me0 ([1]; listed as hHP1β) | subnuclear distribution [2]
1 | hHP1β WT: recombinant human heterochromatin protein 1β (GenBank NM_001127228), 185 aa | efficiently aggregated H3K9me3 but not H3K9me0 oligonucleosomes | No clustering of H3K9me0 chromatin | largely localized to characteristic areas of pericentromeric heterochromatin enriched in H3K9me3
2 | hHP1β I161A: CSD point mutant of hHP1β incapable of dimerization | neither the I161A mutant, nor the isolated CD or CSD had any effect on modified or unmodified chromatin | – | diffuse distribution
